Measurements taken from patent US7579468B2, “Methods of modulating neurotrophin-mediated activity” (PainCeptor Pharma Corporation, priority 2005, dated 2009).
“Also recorded” adds a separate entry of the source.

Columns and labels:
[1] = tested on: T1, PC12 (TrkA & p75); assay: 125I-NGF binding displacement in PC12 cells; parameters: species or system rat; conditions: for PC12 (TrkA & p75) Single point (% max binding) Mean: PC12 cells; for NGF binding displacement, dose-response curve: PC12 cells expressing TrkA and p75, individual experiment
T1 construct: other: Concentration 25 μM; PC12 cells; other: Concentration 50 μM; other: PC12 cells; 125I-NGF ~0.11 nM; other: PC12 cells expressing TrkA and p75; individual experiment; fused on or other part: 125I label on NGF
Experimental: (§1) All cells were incubated at 37° C. in 5% CO2. PC12 cells were maintained in RPMI-1640 medium supplemented with 10% fetal bovine serum (FBS). A875 human melanoma cells were maintained in DMEM with 10% FBS. HEK 293 cells were stably transfected with human TrkA plasmid (see below) and maintained in DMEM with 10% FBS and G418 (600 μg/mL) for selection.
(§2) NGF binding was evaluated using methods familiar to those who are skilled in the art. Briefly, cells expressing one or both NGF receptors (PC12: TrkA+p75; A875: p75 alone; HEK_TrkA: TrkA alone) were harvested by replacing the medium with calcium-magnesium free balanced salt (Grey's) solution and incubating at 37° C. for 15 min. For NGF binding, cells were resuspended at a concentration of 2×10^6 cells/mL in HEPES-Krebs-Ringer (HKR) buffer (10 mM HEPES; 125 mM NaCl; 4.8 mM KCl; 1.3 mM CaCl2; 1.2 mM MgSO4; 1.2 mM KH2PO4; 1 mg/ml BSA; 1 mg/ml glucose; pH 7.4) and exposed to ^125I-NGF (˜0.11 nM) in the presence or absence of varying concentrations of the compound. Non-specific binding was determined for reference by incubating ^125I-NGF with an excess of non-radioactive NGF in the absence of compound. Following a two-hour incubation period at 4° C., ^125I-NGF bound to the cells was quantified in a gamma radiation counter following separation from unbound NGF by filtration or centrifugation through glycerol (10% in HKR). Inhibition of binding was calculated as a percent of the specific binding (calculated as the differential between ^125I-NGF binding in the absence and presence of an excess of non-radioactive NGF without compound). Dose-response inhibition curves were typically generated with seven concentrations of a given compound, with three replicates for each concentration. For most compounds, multiple dose-response curves were generated.

[2] = tested on: Mice; assay: Writhing Test (acetic acid abdominal contraction test); type: in vivo, mouse; conditions: 100 mg/kg i.p., 30 minutes following acetic acid, vehicle 57±1
Experimental: The acetic acid abdominal contraction test (Martinez et al., Pain 1999; 81: 179) was used to determine the efficacy of different compounds in a model of acute visceral chemical nociception. […] Compound or vehicle was administered (i.p. or s.c.) 15-45 minutes prior to the acetic acid injection. Each episode of writhing is characterized by a lengthwise stretching of the torso with a concomitant arching of the back.
Statistical analysis was performed using Prism™ 4.01 software package (GraphPad, San Diego, Calif., USA). The difference in response levels between treatment groups and control vehicle group was analyzed using an ANOVA followed by Bonferroni's method for post-hoc pair-wise comparisons. A p value <0.05 was considered to be significant.

[3] = tested on: PC12 cells; assay: NGF-induced neurite outgrowth in PC12 cells; type: cell-based, rat; conditions: 4 days of exposure to NGF
Experimental: This assay was run as a further functional marker of NGF antagonism and takes advantage of the differentiation of PC12 cells (neurite outgrowth) induced by NGF. Cultures of PC12 cells were grown on Terasaki plates pre-coated with poly-D-lysine. Cells were exposed to NGF (1-50 (preferably 5) ng/ml) to induce neurite outgrowth as described elsewhere [L A Greene & A S Tischler, Establishment of a noradrenergic clonal line of rat adrenal pheochromocytoma cells which respond to nerve growth factor, Proc Natl Acad Sci USA. 1976 July; 73(7): 2424-2428]. In addition to NGF, cells were exposed to varying concentration of the compounds or vehicle. Following 4 days of exposure to NGF in the presence or absence of compound, neurite outgrowth was quantified. A neurite was scored if its caliber from origin to terminal was approximately the same and the length was equal to or greater than 1.5 the cell body diameter. The number of neurite bearing cells per total number of viable cells was calculated for each condition; the number of cells with neurites in the presence of NGF (without compound exposure) was considered to represent maximal (100%) outgrowth, to which the inhibitory effect of compounds of the invention on NGF-induced outgrowth was compared.

[4] = tested on: A875: p75 alone; assay: 125I-NGF binding displacement in A875 cells; parameters: species or system human; conditions: A875 cells expressing p75; individual experiment
Experimental: as §1, §2

[5] = tested on: T2, PC12 (TrkA & p75); assay: 125I-NGF binding displacement in PC12 cells; parameters: species or system rat; conditions: PC12, A875 and HEK_TrkA cells taken together
T2 construct: other: PC12, A875 an; fused on or other part: 125I label on NGF
Experimental: as §1, §2

[6] = tested on: Male Sprague-Dawley rats; assay: Spared Nerve Injury (SNI) model of neuropathic pain; type: in vivo, rat; conditions: Von Frey filaments, 90 min post-treatment, Compound 11 3 and 10 mg/kg i.p., Compound 107 20 mg/kg i.p.
Excerpt: The Spared Nerve Injury (SNI) model (Decosterd et al., Pain 2000; 87: 149) was used to induce chronic neuropathic pain. Male Sprague-Dawley rats were anesthetized with isoflurane, and two of the three terminal branches of the sciatic nerve (tibial and common peroneal nerves) were transected, leaving the remaining sural nerve intact. Animals develop thermal and mechanical hyperalgesia and allodynia, as well as spontaneous pain or dysesthesia that last month after the nerve injury.
Mechanical allodynia testing: Pre- and post-injury baselines as well as post-treatment values (vehicle or compound-treated animals) for mechanical allodynia were evaluated using Von Frey filaments (Stoelting, Wood Dale, Ill., USA) with varying stiffness. […] The mean and standard error of the mean (SEM) were determined for each paw in each treatment group (ipsilateral/injured paw and contralateral/non-injured paw). […] Effects of compounds were evaluated two weeks after the injury. Compound or vehicle was administered (i.p. or s.c.) and effects on mechanical allodynia were measured at different time points after dosing (e.g., 30, 60 and 90 min.).
Data analysis: Statistical analyses were conducted using Prism™ 4.01 (GraphPad, San Diego, Calif., USA). Mechanical hypersensitivity of the injured paw was determined by comparing contralateral to ipsilateral paw values within the vehicle group at each time point. […]

[7] = tested on: HEK_TrkA: TrkA alone (human TrkA); assay: 125I-NGF binding displacement in HEK_TrkA cells; conditions: individual experiment
Experimental: as §1
Expression of human TrkA in HEK cells was achieved by transfecting the cells with the TrkA expression vector using Lipofectamine (Invitrogen) reagent. HEK cells were plated in 100 mm Petri dishes at a concentration of 10^6 cells per dish. The next day, a solution of DNA diluted in 1 mL OptiMEM (Invitrogen) per dish was prepared and incubated for 15 min at room temperature. […]
NGF binding was evaluated using methods familiar to those who are skilled in the art. […] Non-specific binding was determined for reference by incubating ^125I-NGF with an excess of non-radioactive NGF in the absence of compound. Following a two-hour incubation period at 4° C., ^125I-NGF bound to the cells was quantified in a gamma radiation counter following separation from unbound NGF by filtration or centrifugation through glycerol (10% in HKR). Inhibition of binding was calculated as a percent of the specific binding (calculated as the differential between ^125I-NGF binding in the absence and presence of an excess of non-radioactive NGF without compound). […]

NNC(=O)NN1C(=O)c2cc(S(=O)(=O)[O-])cc3c(N)c(S(=O)(=O)[O-])cc(c23)C1=O.[K+].[K+] [Compound 52, 6-Amino-1,3-dioxo-2-amino-ureido-2,3-dihydro-1H-benzo[de]isoquinoline-5,8-disulfonic acid-di-potassium salt]
PC12 (TrkA & p75) Single point (% max binding) Mean ([1]; Concentration 50 μM): * (* >50)

O=C(O)CCCN1C(=O)c2cccc3cc([N+](=O)[O-])cc(c23)C1=O [Compound 63, 4-(5-Nitro-1,3-dioxo-1H,3H-benzo[de]isoquinolin-2-yl)-butyric acid]
Number of abdominal contractions (writhing) [2]: 9±3

O=C(O)CCCN1C(=O)c2cc(Br)cc3cc([N+](=O)[O-])cc(c23)C1=O [Compound 89, 4-(5-Bromo-8-nitro-1,3-dioxo-1H,3H-benzo[de]isoquinolin-2-yl)-butyric acid]
PC12 (TrkA & p75) Single point (% max binding) Mean ([1]; Concentration 50 μM): ** (30 < ** <50)

NC(=O)c1cc2c3c(cccc3c1)C(=O)N(CCCC(=O)O)C2=O [Compound 95, 4-(5-Carbamoyl-1,3-dioxo-1H,3H-benzo[de]isoquinolin-2-yl)-butyric acid]
Inhibition of NGF-induced neurite outgrowth [3]: effectively inhibits neurite outgrowth induced by NGF

O=C(O)CCCN1C(=O)c2cccc3c(C(=O)c4ccccc4)ccc(c23)C1=O [Compound 99, 4-(6-Benzoyl-1,3-dioxo-1H,3H-benzo[de]isoquinolin-2-yl)-butyric acid]
PC12 (TrkA & p75) Single point (% max binding) Mean ([1]; Concentration 25 μM): *** (* < *** <30)

O=C(O)CCCN1C(=O)c2cccc3c(C(=O)O)ccc(c23)C1=O [Compound 100, 2-(3-Carboxy-propyl)-1,3-dioxo-2,3-dihydro-1H-benzo[de]isoquinoline-6-carboxylic acid]
PC12 (TrkA & p75) Single point (% max binding) Mean ([1]; Concentration 25 μM): *** (* < *** <30)

O=C1Nc2ccc([N+](=O)[O-])c3cccc1c23 [Compound 103, 6-Nitro-1H-benzo[cd]indol-2-one]
PC12 (TrkA & p75) Single point (% max binding) Mean ([1]; Concentration 25 μM): * (* >50)

O=C(O)CCCN1C(=O)c2cccc3c(Cl)ccc(c23)C1=O [Compound 104, 4-(6-Chloro-1,3-dioxo-1H,3H-benzo[de]isoquinolin-2-yl)-butyric acid]
PC12 (TrkA & p75) Single point (% max binding) Mean ([1]; Concentration 25 μM): ** (30 < ** <50)

CC(=O)Nc1cc2c3c(cc(NC(C)=O)cc3c1)C(=O)N(CCCS(=O)(=O)O)C2=O [Compound 107, 3-(5,8-Bis-acetylamino-1,3-dioxo-1H,3H-benzo[de]isoquinolin-2-yl)-propane-1-sulfonic acid]
Inhibition of NGF-induced neurite outgrowth [3]: effectively inhibits neurite outgrowth induced by NGF | NGF binding displacement, dose-response curve [4]: effectively blocks NGF binding to cells expressing p75 | NGF binding displacement, dose-response curve [1]: effectively blocks NGF binding to cells expressing TrkA and p75 | Block of NGF binding to TrkA and/or p75 (summary of FIGS. 1B, 2A, 2B, 4A, 4B, 6A, 6B, 7A, 8A, 8B) [5]: effectively block NGF binding to TrkA and/or p75 | Effect on mechanical allodynia in the SNI model [6]: significant dose-dependent reversal of the mechanical allodynia; also recorded: significant antinociceptive effects | NGF binding displacement, dose-response curve [7]: effectively blocks NGF binding to cells expressing TrkA

CN(C)S(=O)(=O)c1ccc2c3c(cccc13)C(=O)N(CCCC(=O)O)C2=O [Compound 112, 4-(6-Dimethylsulfamoyl-1,3-dioxo-1H,3H-benzo[de]isoquinolin-2-yl)-butyric acid]
PC12 (TrkA & p75) Single point (% max binding) Mean ([1]; Concentration 50 μM): *** (* < *** <30)

O=C(O)CCCN1C(=O)c2cccc3c(S(=O)(=O)N4CCOCC4)ccc(c23)C1=O [Compound 113, 4-[6-(Morpholine-4-sulfonyl)-1,3-dioxo-1H,3H-benzo[de]isoquinolin-2-yl]-butyric acid]
PC12 (TrkA & p75) Single point (% max binding) Mean ([1]; Concentration 50 μM): ** (30 < ** <50)

CN(C)S(=O)(=O)c1cc2c3c(cccc3c1)C(=O)N(CCCC(=O)O)C2=O [Compound 114, 4-(5-Dimethylsulfamoyl-1,3-dioxo-1H,3H-benzo[de]isoquinolin-2-yl)-butyric acid]
PC12 (TrkA & p75) Single point (% max binding) Mean ([1]; Concentration 50 μM): ** (30 < ** <50)

N#Cc1cc2c3c(cccc3c1)C(=O)N(CCCC(=O)O)C2=O [Compound 124, 4-(5-Cyano-1,3-dioxo-1H,3H-benzo[de]isoquinolin-2-yl)-butyric acid]
Inhibition of NGF-induced neurite outgrowth [3]: effectively inhibit neurite outgrowth induced by NGF | NGF binding displacement, dose-response curve [4]: effectively blocks NGF binding to cells expressing p75 | NGF binding displacement, dose-response curve [1]: effectively blocks NGF binding to cells expressing TrkA and p75 | Block of NGF binding to TrkA and/or p75 (summary of FIGS. 1B, 2A, 2B, 4A, 4B, 6A, 6B, 7A, 8A, 8B) [5]: effectively block NGF binding to TrkA and/or p75
